Literature values as cited in patent publication US20200306252A1, “COMPOSITION FOR PREVENTING AND/OR TREATING DEMENTIA” (priority 2019, published 2020).

Tests used:
β-amyloid = settings: cellular experiments
neural cells = settings: cellular experiments
patients with dementia = settings: clinical experiments; curcumin alone

COc1cc(/C=C/C(=O)CC(=O)/C=C/c2ccc(O)c(OC)c2)ccc1O [curcumin]
reducing β-amyloid aggregation (β-amyloid): effective
protecting neural cells (neural cells): effective
bioavailability: poor
alleviation of the symptoms of patients with dementia (patients with dementia): cannot effectively alleviate the symptoms
